{
  "source": "patent US20170058314A1",
  "about": "“NOVEL METHODOLOGY FOR IDENTIFYING ANTI-PERSISTER ACTIVITY AND ANTIMICROBIAL SUSCEPTIBILITY FOR BORRELIA BURGDORFERI AND OTHER BACTERIA” (priority 2014, published 2017)",
  "system": "M. tuberculosis H37Ra WT",
  "assay_type": "cell-based, Mycobacterium tuberculosis",
  "data": [
    {"molecule": "NC(=O)c1cnccn1", "note": "[PZA, pyrazinamide]", "values": [
      {"measurement": "residual viability of H37Ra WT compared with PZA resistant mutants", "result": "obviously decreased"}
    ]}
  ]
}
